Our source for the TGI and GI50 values is PubChem BioAssay (NCI).

Values joined by “and” are separate entries in the source; they are usually repeats but may differ in a detail not shown here. Equal values may be shown once.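 Cultured in 96-well plates, cells were exposed to test compound for 48 hours across five concentrations. GI50 is the concentration that inhibits growth by half. Definition used: TGI = concentration required for complete inhibition of growth.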

Some test systems named below: DLD-1 colon; DMS 273 small cell lung; LXFL 529 NSCLC; M19-MEL melanoma; RXF-631 renal.
Holding throughout (test): DTP human tumour cell line panel, 48 h

Usually TGI stands for the concentration giving total growth inhibition. Low readings indicate more potent growth arrest, high ones less potent growth arrest. For the compound `COC(=O)C(=O)C(C(=O)C(=O)Nc1cccc(C(C)=O)c1)c1nc2ccccc2[nH]c1=O` (stereo unspecified), the TGI with DLD-1 colon, in the experiment with DMS 273 small cell lung, in the experiment on LXFL 529 NSCLC, in the experiment with M19-MEL melanoma and in the experiment with RXF-631 renal was greater than 100 µM in each case.

Regarding `Cc1ccc(-c2cc(-c3ccco3)c(C#N)c(=O)n2C2OC(OC(=O)c3ccccc3)C(OC(=O)c3ccccc3)C2OC(=O)c2ccccc2)cc1` (stereo unspecified), the TGI in the experiment with DLD-1 colon, with DMS 273 small cell lung, in the experiment on LXFL 529 NSCLC, with M19-MEL melanoma and in the experiment on RXF-631 renal was greater than 100 µM throughout.

Regarding `O=[N+]([O-])c1cnn(C2=CNc3ccccc3N=C2)c1`, the TGI in the experiment on DLD-1 colon, in the experiment with DMS 273 small cell lung, in the experiment with M19-MEL melanoma and with RXF-631 renal was greater than 100 µM in each case.

Turning to `O=C(c1ccncc1)n1nc(-c2ccccc2)c(N=Nc2ccccc2[N+](=O)[O-])c1-c1ccccc1`, the TGI in the experiment with DLD-1 colon, in the experiment with DMS 273 small cell lung, with LXFL 529 NSCLC, in the experiment with M19-MEL melanoma and with RXF-631 renal was greater than 100 µM in each case.

`Cc1cccc(-n2c(=S)[nH]c3c(sc(=O)n3-c3ccccc3C)c2=O)c1`: the TGI in the experiment with DLD-1 colon, in the experiment with DMS 273 small cell lung, with LXFL 529 NSCLC, in the experiment on M19-MEL melanoma and in the experiment with RXF-631 renal was greater than 100 µM in each case.

As for `COc1ccc(/C=C\c2cc(OC)c(O[Si](C)(C)C(C)(C)C)c(OC)c2)cc1`, the TGI in the experiment with DLD-1 colon, in the experiment on DMS 273 small cell lung, in the experiment with LXFL 529 NSCLC, with M19-MEL melanoma and with RXF-631 renal was greater than 100 µM throughout.

In the case of `COC(=O)c1ccccc1NC(=O)C(=O)NNC(=O)c1ccncc1`, the TGI in the experiment with DLD-1 colon, in the experiment on DMS 273 small cell lung, in the experiment with LXFL 529 NSCLC, with M19-MEL melanoma and with RXF-631 renal was greater than 100 µM each time.

As to `CC(=O)NC(CCCCNC(=O)NCCCl)C(=O)NCc1ccccc1` (stereo unspecified), the TGI with DLD-1 colon, in the experiment with DMS 273 small cell lung, in the experiment with LXFL 529 NSCLC, with M19-MEL melanoma and in the experiment with RXF-631 renal was greater than 100 µM throughout.

On to `CCOC(=O)c1s/c(=N\Nc2nc3ccccc3cc2C2OCCO2)n(Cc2ccccc2)c1C`, for which the TGI with DLD-1 colon, with DMS 273 small cell lung, with LXFL 529 NSCLC, in the experiment with M19-MEL melanoma and with RXF-631 renal was greater than 100 µM in each case.

The term GI50 denotes the concentration that inhibits growth by half. For the compound `N#CCCN(CCC#N)c1ccc(C(Sc2ccccc2)C(NC(=O)c2cc([N+](=O)[O-])ccc2Cl)C(=O)Sc2ccccc2)cc1` (stereo unspecified), the GI50 was 1.8 µM in the experiment with DLD-1 colon, 1.63 µM with LXFL 529 NSCLC, 2.95 µM in the experiment with M19-MEL melanoma and 1.53 µM with RXF-631 renal. Besides, the TGI with DLD-1 colon was 9.43 µM and 4.58 µM; in the experiment on DMS 273 small cell lung, 5.15 µM; in the experiment on LXFL 529 NSCLC it was 11.9 µM; with M19-MEL melanoma it was 11.9 µM; in the experiment on RXF-631 renal, 4.01 µM.

Regarding `C/C(CCc1ccccc1)=N\NC(N)=S`, the TGI in the experiment on DLD-1 colon, with DMS 273 small cell lung, with LXFL 529 NSCLC, in the experiment with M19-MEL melanoma and with RXF-631 renal was greater than 100 µM in each case.

On to `CN1CC[C@]2(C)c3ccc(O)cc3CC3CCCC1C32C` (stereo partly specified), for which the TGI with DLD-1 colon, in the experiment with LXFL 529 NSCLC, with M19-MEL melanoma and in the experiment with RXF-631 renal was greater than 100 µM throughout.

Consider `Cc1cc(C)c(C(=O)c2no[n+]([O-])c2C(=O)c2c(C)cc(C)c(Br)c2C)c(C)c1Br`, for which the TGI in the experiment on DLD-1 colon was found to be 30.7 µM; in the experiment on DMS 273 small cell lung, 45.1 µM; in the experiment with LXFL 529 NSCLC, 23.7 µM; in the experiment on M19-MEL melanoma it was 25.7 µM; in the experiment with RXF-631 renal, 35.7 µM.

For `CCCCN(CCCC)c1c([N+](=O)[O-])c(=O)nc2ccccn12`, the TGI is greater than 100 µM in the experiment with DLD-1 colon, greater than 100 µM with LXFL 529 NSCLC, greater than 100 µM with M19-MEL melanoma and 79.8 µM in the experiment with RXF-631 renal.

As to `Cc1ccc(-c2cc(-c3ccccc3)c(C#N)c(=O)n2C2OC(CO)C(O)C(O)C2O)cc1` (stereo unspecified), the TGI in the experiment on DLD-1 colon, in the experiment on DMS 273 small cell lung, in the experiment on LXFL 529 NSCLC, in the experiment with M19-MEL melanoma and in the experiment with RXF-631 renal was greater than 100 µM each time.

Consider `COc1ccc(/C=C2\CCCC(C(NO)c3ccc(OC)cc3)C2=NO)cc1` (stereo unspecified), for which the TGI with DLD-1 colon, in the experiment on DMS 273 small cell lung, with LXFL 529 NSCLC, in the experiment with M19-MEL melanoma and with RXF-631 renal was greater than 100 µM throughout.

`COC1OC(CO)C(O)C1N` (stereo unspecified): the TGI in the experiment on DLD-1 colon, in the experiment on LXFL 529 NSCLC and in the experiment on RXF-631 renal was greater than 100 µM each time.

With `CS(=O)(=O)CSCSSCS(C)(=O)=O`, the concentration for total growth inhibition (TGI) with DLD-1 colon is greater than 75.4 µM; in the experiment on DMS 273 small cell lung, greater than 81.3 µM; in the experiment on LXFL 529 NSCLC it was 42.5 µM; with M19-MEL melanoma, greater than 100 µM; in the experiment on RXF-631 renal, greater than 100 µM.

`OC1(c2ccccc2)OC(C#Cc2ccccc2)(c2ccccc2)c2ccccc21` (stereo unspecified): the TGI with DLD-1 colon stood at 11.2 µM; in the experiment on DMS 273 small cell lung it was 12.1 µM; in the experiment on LXFL 529 NSCLC, 19.2 µM; with M19-MEL melanoma it was 11.1 µM; in the experiment on RXF-631 renal, 13.3 µM.

Take `C[C@]12CCCC(=O)C1(O)C[C@H](C(=O)O)CC2` (stereo partly specified): the TGI with DLD-1 colon, with DMS 273 small cell lung, with LXFL 529 NSCLC, with M19-MEL melanoma and in the experiment on RXF-631 renal was greater than 100 µM each time.

Regarding `CC1=C(C(=O)Nc2cccc(Cl)c2)C(c2ccccc2F)C(C(=O)Nc2cccc(Cl)c2)=C(C)N1`, the total growth inhibition concentration (TGI) amounted to 28.8 µM with DLD-1 colon; 26.4 µM with DMS 273 small cell lung; 23.4 µM with LXFL 529 NSCLC; 26.4 µM in the experiment on M19-MEL melanoma; 22.6 µM in the experiment with RXF-631 renal.

Consider `CN(C)/N=C(/c1nc2ccc(Cl)cc2[nH]c1=O)C(O)c1ccc(C(O)/C(=N\N(C)C)c2nc3ccc(Cl)cc3[nH]c2=O)cc1` (stereo unspecified), for which the TGI in the experiment with DLD-1 colon, in the experiment on M19-MEL melanoma and in the experiment with RXF-631 renal was greater than 100 µM each time.

Turning to `NCCCCNc1ccc2c(=O)[nH][nH]c(=O)c2c1`, the TGI in the experiment on DLD-1 colon, with DMS 273 small cell lung, in the experiment with LXFL 529 NSCLC and in the experiment with M19-MEL melanoma was greater than 100 µM each time.

Consider `CC[C@]1(O)C(=O)OCc2c1cc1n(c2=O)Cc2cc3c(N)cccc3nc2-1`, for which the TGI in the experiment on DLD-1 colon, in the experiment on DMS 273 small cell lung, with LXFL 529 NSCLC, in the experiment with M19-MEL melanoma and with RXF-631 renal was greater than 100 µM each time.

Turning to `COC1C2C=CC(C2)[C@H]1[N+](=O)[O-]` (stereo partly specified), the TGI with DLD-1 colon, in the experiment with DMS 273 small cell lung, with LXFL 529 NSCLC, in the experiment with M19-MEL melanoma and with RXF-631 renal was greater than 100 µM throughout.
